Results: patent publication US12023397B2, “Scalp protection composition” (PATECH FINE CHEMICALS CO., LTD., priority 2021, dated 2024)

Key:
[1] = Spreadability (spreading rate on quantitative filter paper); assay type: physicochemical; conditions: 50 μL on quantitative filter paper NO. 5C, spreading area after 5 minutes divided by time
Procedure: 50 μL of the carboxylate compound of formula (I-1) prepared in Synthesis Example 1 was dropped on the center of a quantitative filter paper (NO. 5C), and after 5 minutes, the spreading area of the carboxylate compound of formula (I-1) on the quantitative filter paper was measured. The spreading rate (mm^2/min) was calculated by dividing the spreading area by the spreading time (i.e., 5 minutes).
The carboxylate compound of formula (I-2) prepared in Synthesis Example 2, the carboxylate compound of formula (I-3) prepared in Synthesis Example 3, and the test samples of Comparative Examples 1 to 3 were subjected to the same measurement as described above.
The higher the spreading rate, the better the spreadability is.

[2] = Hydrolysis resistance (variation in acid value in alkaline aqueous solution, pH 13); assay type: physicochemical; conditions: 10 g sample + 20 g NaOH aqueous solution pH 13, 40±1° C.
Procedure: 10 g of the carboxylate compound of formula (I-1) prepared in Synthesis Example 1 was mixed with 20 g of an alkaline aqueous solution with a pH value of 13 (which contained sodium hydroxide and water), and then subjected to a reaction at 40±1° C. for 4 hours. Next, the variation in acid value (mg KOH/g) was measured at the 0.75th, 2nd, 3rd, and 4th hours after starting the reaction.
The carboxylate compound of formula (I-2) prepared in Synthesis Example 2, the carboxylate compound of formula (I-3) prepared in Synthesis Example 3, and the test samples of Comparative Examples 1 to 2 were subjected to the same reaction and measurement as described above.
The smaller the variation in acid value, the better the hydrolysis resistance to strong bases is.

skin of a test subject = assay: Moisture retention (skin moisture content after application); assay type: in vivo; conditions: 20° C.±3° C., relative humidity 30%±5%
Procedure: 0.1 g of the scalp protection composition of Example 1 was applied to the skin of a test subject. At the 1st, 2nd, and 3rd hours after start of application of the scalp protection composition of Example 1, the skin moisture content (%) of the test subject was measured by using a skin moisture tester (Manufacturer: Cortex Technology; Model no.: DermaLab® Combo) under a temperature of 20° C.±3° C. and a relative humidity of 30%±5%.
The test samples of Comparative Examples 1 and 3 were subjected to the same measurement as described above.
The higher the skin moisture content, the better the moisture retention is.

Row | SMILES | Spreading rate [1] | Variation in acid value ([2]; 0.75th hour) | Variation in acid value ([2]; 2nd hour) | Variation in acid value ([2]; 3rd hour) | Variation in acid value ([2]; 4th hour) | Skin moisture content (skin of a test subject; 1st hour after application of 0.1 g to skin) | Skin moisture content (skin of a test subject; 2nd hour after application of 0.1 g to skin) | Skin moisture content (skin of a test subject; 3rd hour after application of 0.1 g to skin)
1 | CCCCCCCCCCC(CCCCCCCC)COC(=O)CCCCCCCCCCCCCCC(C)C (stereo not shown) [Comparative Example 1, 2-octyldodecyl isostearate] | 150 mm^2/min | 0.21 mg KOH/g | 0.26 mg KOH/g | 0.28 mg KOH/g | 0.32 mg KOH/g | 28.0% | 22.7% | 19.3%
2 | CCCCCCCCCCC(CCCCCCCC)COC(=O)C(CC)CCCC (stereo not shown) [Synthesis Example 1, 2-octyldodecyl 2-ethylhexanoate] | 202 mm^2/min | <0.1 mg KOH/g | <0.1 mg KOH/g | 0.12 mg KOH/g | 0.16 mg KOH/g |  |  | 
